From ChEMBL document CHEMBL2062393, “Drugs for stroke: action of nitrone (Z)-N-(2-bromo-5-hydroxy-4-methoxybenzylidene)-2-methylpropan-2-amine oxide on rat cortical neurons in culture subjected to oxygen-glucose-deprivation” (Eur J Med Chem, 2012)
Activity calls are given as the source filed them. The rule behind the calls is not given here.

What was measured:
Format in all cases: functional
[1] = tested on: Cortical neurone; assay: Neuroprotective activity against Wistar rat Cortical neurons assessed as reduction of oxygen-glucose-deprivation-induced caspase-3 activity at 1 to 100 uM treated during reperfusion measured after 24 hrs by spectrofluorometer analysis
[2] = tested on: Cortical neurone; assay: Neuroprotective activity against Wistar rat Cortical neurons assessed as reduction of oxygen-glucose-deprivation-induced lipid peroxidation at 100 uM treated during reperfusion measured after 24 hrs by TBARS method
[3] = tested on: Cortical neurone; assay: Neuroprotective activity against Wistar rat Cortical neurons assessed as reduction of oxygen-glucose-deprivation-induced LDH release at 1 to 100 uM treated during reperfusion measured after 24 hrs
[4] = tested on: Cortical neurone; assay: Neuroprotective activity against Wistar rat Cortical neurons assessed as reduction of oxygen-glucose-deprivation-induced lipid peroxidation at 1 uM treated during reperfusion measured after 24 hrs by TBARS method
[5] = tested on: Cortical neurone; assay: Neuroprotective activity against Wistar rat Cortical neurons assessed as reduction of oxygen-glucose-deprivation-induced cell death at 1 to 10 uM treated during reperfusion measured after 24 hrs by XTT assay
[6] = tested on: Cortical neurone; assay: Neuroprotective activity against Wistar rat Cortical neurons assessed as reduction of oxygen-glucose-deprivation-induced mitochondrial membrane potential at 1 to 100 uM treated during reperfusion measured after 24 hrs by spectrofluorometer analysis
[7] = tested on: Cortical neurone; assay: Neuroprotective activity against Wistar rat Cortical neurons assessed as reduction of oxygen-glucose-deprivation-induced ROS production at 1 uM treated during reperfusion measured after 24 hrs by H2DCF-DA assay
[8] = tested on: Cortical neurone; assay: Neuroprotective activity against Wistar rat Cortical neurons assessed as reduction of oxygen-glucose-deprivation-induced cell death at 100 uM treated during reperfusion measured after 24 hrs by XTT assay

COc1cc(Br)c(/C=[N+](\[O-])C(C)(C)C)cc1O
Activity [1]: Active
Activity [2]: inactive
Activity [3]: Active
Activity [4]: Active
Activity [5]: inactive
Activity [6]: inactive
Activity [7]: Active
Activity [8]: Active
